Source: patent US10660334B2, “Fused bicyclic heterocycle derivatives as pesticides” (Bayer CropScience Aktiengesellschaft, priority 2016, dated 2020)

What was measured:
[1] = log P by HPLC on reversed-phase column (EEC Directive 79/831 Annex V.A8), acidic range; format: physicochemical; details: reversed-phase C18 HPLC column; HPLC reversed-phase C18, 55° C., pH 2.7, 0.1% aqueous formic acid and acetonitrile; read-out: log P (HCOOH)
Method: The log P values are measured according to EEC Directive 79/831 Annex V.A8 by HPLC (high-performance liquid chromatography) on a reversed-phase column (C18). Temperature: 55° C. The LC-MS determination in the acidic range is effected at pH 2.7 with 0.1% aqueous formic acid and acetonitrile (containing 0.1% formic acid) as eluents; linear gradient from 10% acetonitrile to 95% acetonitrile. Called log P (HCOOH) in the table.

[2] = system: Lucilia cuprina; test: Lucilia cuprina test; format: in vivo; details: application rate 100 ppm, L1 larvae, after 2 days
Method: Lucilia cuprina Test Solvent: dimethyl sulfoxide To produce a suitable active ingredient formulation, 10 mg of active ingredient are mixed with 0.5 ml of dimethyl sulfoxide, and the concentrate is diluted with water to the desired concentration. About 20 L1 larvae of the Australian sheep blowfly (Lucilia cuprina) are transferred into a test vessel containing minced horsemeat and the active ingredient formulation of the desired concentration. After 2 days, the kill in % is determined. 100% means that all the larvae have been killed; 0% means that no larvae have been killed.

[3] = system: Musca domestica; test: Musca domestica test; format: in vivo; details: application rate 100 ppm, adult houseflies, after 2 days
Method: Musca domestica Test Solvent: dimethyl sulfoxide To produce a suitable active ingredient formulation, 10 mg of active ingredient are mixed with 0.5 ml of dimethyl sulfoxide, and the concentrate is diluted with water to the desired concentration. Vessels containing a sponge treated with sugar solution and the active ingredient formulation of the desired concentration are populated with 10 adult houseflies (Musca domestica). After 2 days, the kill in % is determined. 100% means that all of the flies have been killed; 0% means that none of the flies have been killed.

[4] = system: Myzus persicae; test: Myzus persicae oral test; format: in vivo; details: 120 h, application rate 4 ppm, after 5 days, read-out: efficacy (aphids killed)
Method: Myzus persicae—Oral Test Solvent: 100 parts by weight of acetone To produce a suitable active ingredient formulation, 1 part by weight of active ingredient is dissolved with the stated parts by weight of solvent and made up to the desired concentration with water. 50 μl of the active ingredient preparation are transferred into microtitre plates and made up to a final volume of 200 μl with 150 μl of IPL41 insect medium (33%+15% sugar). Subsequently, the plates are sealed with parafilm, which a mixed population of green peach aphids (Myzus persicae) within a second microtitre plate is able to puncture and imbibe the solution. After 5 days, the efficacy in % is determined. 100% means that all the aphids have been killed; 0% means that no aphids have been killed.

[5] = system: Phaedon cochleariae; test: Phaedon cochleariae spray test; format: in vivo; details: spray on Chinese cabbage leaf discs, after 7 days
Method: Phaedon cochleariae—Spray Test
Solvent: 78.0 parts by weight of acetone • • 1.5 parts by weight of dimethylformamide
Emulsifier: alkylaryl polyglycol ether
To produce a suitable active ingredient formulation, 1 part by weight of active ingredient is dissolved with the specified parts by weight of solvent and made up to the desired concentration with water containing an emulsifier concentration of 1000 ppm. To produce further test concentrations, the formulation is diluted with emulsifier-containing water.
Discs of Chinese cabbage leaves (Brassica pekinensis) are sprayed with an active ingredient formulation of the desired concentration and, after drying, populated with larvae of the mustard beetle (Phaedon cochleariae).
After 7 days, the efficacy in % is determined. 100% means that all the beetle larvae have been killed; 0% means that no beetle larvae have been killed.

[6] = system: Myzus persicae; test: Myzus persicae spray test; format: in vivo; details: foliar, 120 h, spray on Chinese cabbage leaf discs, after 5 days, read-out: efficacy (aphids killed); for pest or weed control at 20 g/ha: application rate 20 g/ha; for pest or weed control at 100 g/ha: application rate 100 g/ha
Method: Myzus persicae—Spray Test Solvent: 78 parts by weight of acetone • • 1.5 parts by weight of dimethylformamide Emulsifier: alkylaryl polyglycol ether To produce a suitable active ingredient formulation, 1 part by weight of active ingredient is dissolved with the specified parts by weight of solvent and made up to the desired concentration with water containing an emulsifier concentration of 1000 ppm. To produce further test concentrations, the formulation is diluted with emulsifier-containing water. Discs of Chinese cabbage leaves (Brassica pekinensis) infested by all stages of the green peach aphid (Myzus persicae) are sprayed with an active ingredient formulation of the desired concentration. After 5 days, the efficacy in % is determined. 100% means that all the aphids have been killed; 0% means that no aphids have been killed.

chromatographic logP [1]	SMILES	pest or weed control at 4 ppm [4] [%]	pest or weed control at 20 g/ha [6] [%]	pest or weed control at 100 g/ha [6] [%]	further results
2.31	CCS(=O)(=O)c1c(-c2nc3cc(C(F)(F)F)ncc3n2C)nc2n1CCCC2C (stereo not drawn) [Example I-043, 2-(3-Ethylsulfonyl-8-methyl-5,6,7,8-tetrahydroimidazo[1,2-a]pyridin-2-yl)-3-methyl-6-(trifluoromethyl)imidazo[4,5-c]pyridine]	–	–	–	–
3.03	Cn1c(-c2nc3n(c2Br)CCC(C)(C)C3)nc2cc(C(F)(F)F)ncc21 [Example V-003, 2-(3-Bromo-7,7-dimethyl-6,8-dihydro-5H-imidazo[1,2-a]pyridin-2-yl)-3-methyl-6-(trifluoromethyl)imidazo[4,5-c]pyridine]	–	–	–	–
–	CCS(=O)(=O)c1c(-c2nc3cc(C(F)(F)F)ccc3n2C)nc2n1CCCC2 [Example I-015]	100	90	90	efficacy (kill) [2]: 100%; efficacy (kill) [3]: 90%; efficacy (beetle larvae killed) ([5]; application rate 100 g/ha): 83%
3.39	CC1CCn2c(nc(-c3nc4cc(C(F)(F)C(F)(F)F)ncc4n3C)c2Br)C1 (stereo not drawn) [Example V-002, 2-(3-Bromo-7-methyl-5,6,7,8-tetrahydroimidazo[1,2-a]pyridin-2-yl)-3-methyl-6-(1,1,2,2,2-pentafluoroethyl)imidazo[4,5-c]pyridine]	–	–	–	–
0.67	CC1(C)CCn2c(nc(C(=O)O)c2Br)C1 [III-002, 3-Bromo-7,7-dimethyl-6,8-dihydro-5H-imidazo[1,2-a]pyridine-2-carboxylic acid]	–	–	–	–
2.51	CCS(=O)(=O)c1c(-c2nc3cc(C(F)(F)F)ncc3n2C)nc2n1CCC(C)(C)C2 [Example I-031, 2-(3-Ethysulfonyl-7,7-dimethyl-6,8-dihydro-5H-imidazo[1,2-a]pyridin-2-yl)-3-methyl-6-(trifluoromethyl)imidazo[4,5-c]pyridine]	–	–	–	–
1.6	CCS(=O)(=O)c1c(-c2nc3cc(C(F)(F)F)ncc3n2C)nc2n1CCCC2O (stereo not drawn) [Example I-024, 3-Ethylsulfonyl-2-[3-methyl-6-(trifluoromethyl)imidazo[4,5-c]pyridin-2-yl]-5,6,7,8-tetrahydro-imidazo[1,2-a]pyridin-8-ol]	100	–	90	–
1.97	CCS(=O)(=O)c1c(-c2nc3cc(C(F)(F)F)ncc3n2C)nc2n1CCCC2 [Example I-002, 2-(3-Ethylsulfonyl-5,6,7,8-tetrahydroimidazo[1,2-a]pyridin-2-yl)-3-methyl-6-(trifluoromethyl)imidazo[4,5-c]pyridine]	–	90	90	efficacy (beetle larvae killed) ([5]; application rate 500 g/ha): 83%; pest or weed control at 500 g/ha ([6]; application rate 500 g/ha): 90%
2.8	CCS(=O)(=O)c1c(-c2nc3cc(C(F)(F)C(F)(F)F)ncc3n2C)nc2n1CCC(C)C2 (stereo not drawn) [Example I-034, 2-(3-Ethylsulfonyl-7-methyl-5,6,7,8-tetrahydroimidazo[1,2-a]pyridin-2-yl)-3-methyl-6-(1,1,2,2,2-pentafluoroethyl)imidazo[4,5-c]pyridine]	–	–	–	–
2.11	CCS(=O)(=O)c1c(-c2nc3cc(C(F)(F)F)ncc3n2C)nc2n1CCCC2F (stereo not drawn) [Example I-026, 2-[3-(Ethylsulfonyl)-8-fluoro-5,6,7,8-tetrahydroimidazo[1,2-a]pyridin-2-yl]-3-methyl-6-(trifluoromethyl)-3H-imidazo[4,5-c]pyridine]	–	–	–	–
–	CCS(=O)(=O)c1c(-c2nc3cc(C(F)(F)F)ncc3n2C)nc2n1CCCC2C(F)(F)F (stereo not drawn) [Example I-004]	100	–	–	–
2.26	Cn1c(-c2nc3n(c2Cl)CCCC3)nc2cc(C(F)(F)F)ncc21 [Example V-001, 2-(3-Chloro-5,6,7,8-tetrahydroimidazo[1,2-a]pyridin-2-yl)-3-methyl-6-(trifluoromethyl)imidazo[4,5-c]pyridine]	–	–	–	–
–	Cn1c(-c2nc3n(c2S(C)(=O)=O)CCCC3)nc2cc(C(F)(F)F)cnc21 [Example I-018]	–	90	–	–
–	CCS(=O)(=O)c1c(-c2nc3cc([S+]([O-])C(F)(F)F)cnc3n2C)nc2n1CCCC2 (stereo not drawn) [Example I-022]	100	90	–	–
–	CCS(=O)(=O)c1c(-c2nc3cc(SC(F)(F)F)cnc3n2C)nc2n1CCCC2 [Example I-020]	100	90	90	efficacy (beetle larvae killed) ([5]; application rate 100 g/ha): 100%
–	CCS(=O)(=O)c1c(-c2nc3cc(S(=O)(=O)C(F)(F)F)cnc3n2C)nc2n1CCCC2 [Example I-021]	100	90	100	efficacy (beetle larvae killed) ([5]; application rate 100 g/ha): 100%
–	CCS(=O)(=O)c1c(-c2nc3cc(C(F)(F)F)ncc3n2C)nc2n1CCCC2(O)C(F)(F)F (stereo not drawn) [Example I-006]	100	–	–	–
–	Cn1c(-c2nc3n(c2S(C)(=O)=O)CCCC3)nc2cc(C(F)(F)F)ccc21 [Example I-016]	100	–	–	–
0.27	CC1CCn2c(nc(C(=O)O)c2Br)C1 (stereo not drawn) [III-001, 3-Bromo-7-methyl-5,6,7,8-tetrahydroimidazo[1,2-a]pyridine-2-carboxylic acid]	–	–	–	–
–	CCS(=O)(=O)c1c(-c2nc3cc(C(F)(F)F)nc(C(C)C)c3n2C)nc2n1CCCC2 [Example I-019]	100	90	90	–
2.8	CCS(=O)(=O)c1c(-c2nc3cc(C(F)(F)F)nc(C(F)F)c3n2C)nc2n1CCCC2 [Example I-025, 4-(Difluoromethyl)-2-[3-(ethylsulfonyl)-5,6,7,8-tetrahydroimidazo[1,2-a]pyridin-2-yl]-3-methyl-6-(trifluoromethyl)-3H-imidazo[4,5-c]pyridine]	100	–	–	–
–	Cn1c(-c2nc3n(c2S(C)(=O)=O)CCCC3)nc2cc(SC(F)(F)F)cnc21 [Example I-023]	100	90	90	–
2.1	CCS(=O)(=O)c1c(-c2nc3cc(C(F)(F)F)nc(C)c3n2C)nc2n1CCCC2 [Example I-039, 2-(3-Ethylsulfonyl-5,6,7,8-tetrahydroimidazo[1,2-a]pyridin-2-yl)-3,4-dimethyl-6-(trifluoromethyl)imidazo[4,5-c]pyridine]	–	–	–	–
2.51	CCc1nc(C(F)(F)F)cc2nc(-c3nc4n(c3S(=O)(=O)CC)CCCC4)n(C)c12 [Example I-040, 4-Ethyl-2-(3-ethylsulfonyl-5,6,7,8-tetrahydroimidazo[1,2-a]pyridin-2-yl)-3-methyl-6-(trifluoromethyl)imidazo[4,5-c]pyridine]	–	–	–	–
–	Cn1c(-c2nc3n(c2S(C)(=O)=O)CCCC3)nc2cc(C(F)(F)F)cnc21 [Example I-014]	100	–	90	efficacy (kill) [2]: 100%; efficacy (kill) [3]: 100%
